We go through one substance from patent US20050276766A1, “Methods and compositions for increasing skin remodeling” (Skin Biology, Inc., priority 2003, published 2005).

This assay deals with scar formation after surgical incisions. In words: Scar formation after surgical incisions in mice, cream applied 24 hours after surgery. In kind it is in vivo, Swiss-Webster mice. Particulars: rated from 0 (little or no scarring) to 4 (maximum observed scarring); cream at pH 6.5 applied 24 hours after 1.25 cm surgical incision; 15 mice. On the procedure:
This Example describes the use of a pastes prepared with the complexes of various copper peptides or copper complexes of amino acids and combinations of copper peptides or copper complexes of amino acids and salicylic acid to reduce scarring after surgery in animals.
Surgical incisions (1.25 cm) were made on the backs of anesthetized, 35 gram, Swiss-Webster mice. To allow normal scar development, there was no treatment after surgery. But 24 hours after surgery, the scars were covered with a cream containing either copper peptide alone or in combination with salicylic acid. Control wounds were untreated.
For comparison, the amount of scar formation was rated from 0 (little or no scarring) to 4 (maximum observed scarring) after seven days.
Table 1: Effect of cream at pH 6.5 with either peptide-copper complex or amino acid-copper complex or the combination of peptide copper/salicylic acid combination or amino acid copper/salicylic acid combination on scar formation

Turning to Gly-His-Lys-Copper(II), the “Scar Formation score after 7 days” value is 2.7 ± 0.6.
